Assay results: the RepoRT retention time repository (doi:10.1016/j.foodchem.2021.129757)
Structures can show the parent of a compound that is named as a salt.

assay: RP, Agilent InfinityLab Poroshell 120 EC-C18, 100 × 3 mm, 2.7 µm, 25 °C, 0.4 mL/min, estimated dead time 1.1 min; A: water + 0.1% formic acid, pH 3; B: acetonitrile + 0.1% formic acid, pH 3; gradient (min/%B) 0/5 10/25 20/40 24/90 25/90 26/5 30/5; settings: stereoisomer not certain

Row | Structure (SMILES) | LC retention time [min]
1 | O=C1CCC(Cc2ccc(O)c(OS(=O)(=O)O)c2)O1 (configuration not stated) | 6.5
2 | O=C(O)C1OC(Oc2ccc3c(=O)c(-c4ccc(O)cc4)coc3c2)C(O)C(O)C1O (configuration not stated) [Daidzein 7-O-glucuronide] | 7.51
3 | O=C(O)C1OC(Oc2ccc3c(c2)oc(=O)c2ccc(O)cc23)C(O)C(O)C1O (configuration not stated) [Isourolithin A glucuronide] | 8.44
4 | O=C(O)C1OC(Oc2ccc(-c3coc4cc(O)ccc4c3=O)cc2)C(O)C(O)C1O (configuration not stated) [Daidzein 4'-O-glucuronide] | 8.83
5 | COc1ccc(C2CC(=O)c3c(O)cc(O)cc3O2)cc1OS(=O)(=O)O (configuration not stated) [Hesperetin 3'-O-sulfate] | 13.3
6 | Oc1ccc(CCc2cc(O)cc(O)c2)cc1 [Dihydroresveratrol] | 12.8
7 | O=C1CCC(Cc2cccc(O)c2)O1 (configuration not stated) | 10.6
8 | COc1cc(CC(COC2OC(CO)C(O)C(O)C2O)C(COC2OC(CO)C(O)C(O)C2O)Cc2ccc(O)c(OC)c2)ccc1O (configuration not stated) [Secoisolariciresinol diglucoside] | 8.08
9 | Cc1c(O)cc2c(c1O)C(=O)c1ccccc1C2=O [Rubiadin] | 23.8
10 | O=c1oc2cc(O)ccc2c2cc(O)ccc12 [Isourolithin  A] | 12.7
11 | O=c1c(-c2ccc(O)cc2)coc2cc(OS(=O)(=O)O)ccc12 [Daidzein sulfate] | 9.85
12 | O=C(O)C1OC(Oc2ccc(-c3coc4cc(O)cc(O)c4c3=O)cc2)C(O)C(O)C1O (configuration not stated) [Genistein 4'-O-glucuronide] | 10.7
13 | O=S(=O)(O)Oc1ccc(C=Cc2cc(O)cc(O)c2)cc1 [Resveratrol 4'-sulfate] | 10
14 | O=S(=O)([O-])Oc1ccc(C2COc3cc(O)ccc3C2)cc1 (configuration not stated) [Equol sulfate] | 11.6
15 | O=c1oc2cc(O)ccc2c2c(O)c(O)c(O)cc12 [Urolithin M6] | 9.62
16 | COc1ccc(C2CC(=O)c3c(O)cc(OS(=O)(=O)O)cc3O2)cc1O (configuration not stated) [Hesperetin 7-sulfate] | 12.6
17 | O=c1oc2cc(O)ccc2c2c(O)cc(O)cc12 [Urolithin M7] | 11.2
18 | O=c1oc2cc(OS(=O)(=O)O)ccc2c2ccccc12 [Urolithin B-3-sulfate] | 12.7
19 | O=C(O)c1c(O)cccc1O [2,6-Dihydroxybenzoic acid] | 6.49
20 | O=c1oc2cc(OS(=O)(=O)O)ccc2c2ccc(O)cc12 [Urolithin A-3-sulfate] | 9.67
21 | OCC(Cc1cccc(O)c1)C(CO)Cc1cccc(O)c1 (configuration not stated) [Enterodiol] | 13.5
22 | O=C1c2ccccc2C(=O)c2c1cc(O)c(CO)c2O [lucidin] | 18.6

assay: RP, Waters ACQUITY UPLC BEH C18, 100 × 2.1 mm, 1.7 µm, 65 °C, 0.4 mL/min, estimated dead time 0.55 min; A: water + 0.1% formic acid, pH 3; B: 80% acetonitrile + 20% acetone + 0.1% formic acid, pH 3; gradient (min/%B) 0/0 5/100 5.5/0 6/0; settings: stereoisomer not certain

Row | Structure (SMILES) | LC retention time [min]
23 | CC(O)(CCO)CC(=O)[O-] (configuration not stated) [Mevalonic acid] | 1.35
24 | O=C(O)CC(O)c1ccccc1 (configuration not stated) [3-hydroxy-3-phenylpropionic acid] | 2.06
25 | COc1cc(C(C)=O)ccc1O [4'-Hydroxy-3'methoxyacetophenone] | 2.18
26 | O=C(O)c1ccc2ccccc2n1 [Quinaldic acid] | 1.68
27 | O=Cc1c[nH]c2ccccc12 [Indole-3-carbaldehyde] | 2.32
28 | C=C1CCC(O)CC1=CC=C1CCCC2(C)C1CCC2C(C)C=CC(C)C(C)(C)O (configuration not stated) [25-Hydroxyvitamin-D2] | 5.07

assay: RP, Agilent ZORBAX Eclipse XDB-C18, 100 × 2.1 mm, 1.8 µm, 50 °C, 0.4 mL/min, estimated dead time 0.55 min; A: water + 0.1% formic acid, pH 3; B: methanol + 0.1% formic acid, pH 3; gradient (min/%B) 0/2 10/100 14.5/100 14.51/2 16.5/2; settings: stereoisomer not certain

Row | Structure (SMILES) | LC retention time [min]
29 | O=C([O-])CCc1ccccc1O [3-(2-Hydroxyphenyl)propionic acid] | 4.8
30 | O=C(O)CCCCC(=O)O [Adipic acid] | 2.63
31 | O=C(O)Cc1cc(O)ccc1O [Homogentisic acid] | 1.82
32 | COc1c(O)cccc1O [2-Methoxyresorcinol] | 2.68
33 | O=C(O)Cc1cc(O)cc(O)c1 [3,5-Dihydroxyphenylacetic acid] | 2.21
34 | CC1=C(/C=C/C(C)=C/C=C/C(C)=C/C=C/C=C(C)/C=C/C=C(C)/C=C/C2=C(C)CCCC2(C)C)C(C)(C)CCC1 [beta-carotene] | 13.8
35 | C=C1CCC(O)CC1=CC=C1CCCC2(C)C1CCC2C(C)C=CC(C)C(C)C (configuration not stated) [Ergocalciferol] | 11.8
36 | NCC(O)c1ccccc1 (configuration not stated) [2-Amino-1-phenylethanol] | 1.42
37 | CC1NCCc2cc(O)c(O)cc21 (configuration not stated) [Salsolinol] | 1.57
38 | O=C([O-])C(O)c1ccccc1 (configuration not stated) [Mandelic acid] | 3.01
39 | O=C(O)CNC(=O)C=Cc1ccccc1 [Cinnamoylglycine] | 4.75

assay: RP, Waters ACQUITY UPLC HSS T3, 100 × 2.1 mm, 1.8 µm, 30 °C, 0.4 mL/min, estimated dead time 0.55 min; A: water + 0.1% formic acid, pH 3; B: acetonitrile + 0.1% formic acid, pH 3; gradient (min/%B) 0/0 2/0 15/100 22/100 22.1/0 26/0; settings: stereoisomer not certain

Row | Structure (SMILES) | LC retention time [min]
40 | COc1ccc(-c2cc(=O)c3c(OC)c(OC)c(OC)cc3o2)cc1OC [Sinensetin] | 12.6
41 | CC(C)CC1NC(=O)C2CCCN2C1=O (configuration not stated) [Cyclo(leucyl-prolyl)] | 9.2
42 | COc1cc(CNC(=O)CCCCC=CC(C)C)ccc1O [Capsaicin] | 13.7
43 | O=c1cc(-c2ccc(O)cc2)oc2c(C3OC(CO)C(O)C(O)C3O)c(O)cc(O)c12 (configuration not stated) [Vitexin] | 9.12
44 | O=Cc1ccc[nH]1 [1H-pyrrole-2-carboaldehyde] | 7.8
45 | CC1CCC2(NC1)OC1CC3C4CCC5CC(O)CCC5(C)C4CCC3(C)C1C2C (configuration not stated) [Tomatidine] | 11.8
46 | Cn1c(=O)[nH]c2nc[nH]c2c1=O [1-Methylxanthine] | 6.63
47 | COc1ccc(-c2coc3cc(O)ccc3c2=O)cc1 [Formononetin] | 12.4
48 | OCC1OC(Oc2ccc(O)cc2)C(O)C(O)C1O (configuration not stated) [Arbutin] | 1.34
49 | CC(C)=CCCC(C)=CCOc1c2ccoc2cc2oc(=O)ccc12 [Bergamottin] | 17.4
50 | COc1cc(O)c2c(=O)c(O)c(-c3ccc(O)c(O)c3)oc2c1 [Rhamnetin] | 12.5
51 | COc1ccc(-c2cc(=O)c3c(OC)c(OC)c(OC)c(OC)c3o2)cc1OC [Nobiletin] | 13.2
52 | COc1c2ccoc2cc2oc(=O)ccc12 [Bergapten] | 12.6
53 | COc1ccc(-c2coc3cc(O)cc(O)c3c2=O)cc1 [Biochanin A] | 13.5
54 | CN1CCCCC1C(=O)O (configuration not stated) [1-Methylpiperidine-2-carboxylic acid] | 1.1
55 | O=C(C=CC=Cc1ccc2c(c1)OCO2)N1CCCCC1 [Piperine] | 13.7
56 | O=C(O)CCCCc1ccc(O)c(O)c1 [5-(3,4 dihydroxyphenyl)valeric acid] | 9.86
57 | CCCC(C(=O)O)c1cccc(O)c1 (configuration not stated) [3-Hydroxyphenylvaleric acid] | 10.9
58 | Oc1cc(O)c2c(c1)OC(c1ccc(O)c(O)c1)C(O)C2c1c(O)cc(O)c2c1OC(c1ccc(O)c(O)c1)C(O)C2 (configuration not stated) [Procyanidin B2] | 8.35
59 | OCC(Cc1cccc(O)c1)C(CO)Cc1cccc(O)c1 (configuration not stated) [Enterodiol] | 10.6
60 | COc1cc(C2CC(=O)c3c(O)cc(O)cc3O2)ccc1O (configuration not stated) [Homoeriodictyol] | 11.7
61 | COc1ccc(-c2cc(=O)c3c(O)cc(O)cc3o2)cc1O [Diosmetin] | 11.8
62 | COc1ccc(-c2oc3cc(O)cc(O)c3c(=O)c2O)cc1 [Kaempferide] | 13.4
